Test results published in patent US11091522B2, “Peptidomimetic macrocycles and uses thereof” (priority 2018, dated 2021).
Values belong to the compound of their own block, whether it stands above or below them.

Tests used:
[1] = test system: SJSA-1 cells; test: Cell lysis by peptidomimetic macrocycles (LDH release); format: cell-based, human
Description: SJSA-1 cells were plated out one day in advance in clear, flat-bottom plates at a density of 7500 cells/well with 100 μL/well of growth media. Row H columns 10-12 were left empty to be treated with media alone. On the day of the assay, the media was exchanged with RPMI 1% FBS media to result in 90 μL of media per well. 10 mM stock solutions of the peptidomimetic macrocycles were prepared in 100% DMSO. The peptidomimetic macrocycles were diluted serially in 100% DMSO, and further diluted 20-fold in sterile water to prepare working stock solutions in 5% DMSO/water. The concentrations of the peptidomimetic macrocycles ranged from 500 μM to 62.5 μM.
10 μL of each compound solution was added to the 90 μL of SJSA-1 cells to yield final concentration of 50 μM to 6.25 μM in 0.5% DMSO-containing media. The negative control (non-lytic sample) was 0.5% of DMSO alone. The positive control (lytic) samples included 10 μM of Melittin and 1% Triton X-100. The cell plates were incubated for 1 h at 37° C. After incubation for 1 h, the morphology of the cells was examined by microscope. The plates were then centrifuged at 1200 rpm for 5 min at room temperature. 40 μL of the supernatant for each peptidomimetic macrocycle and control sample was transferred to clear assay plates. LDH release was measured using an LDH cytotoxicity assay kit.

[2] = test system: Caspase 3; test: Caspase 3 detection assay in SJSA-1 cells; format: cell-based, human; conditions: SJSA-1 cells, 48 h, Caspase 3 activation over DMSO-treated cells
Description: One the day of the assay, the media was replaced with fresh RPMI-11% FBS assay media. […] Control wells contained no cells, and received 200 μL of the assay media.
The solutions were serially diluted 33.3 times using sterile water to provide a range of 10× working stock solutions. […] 20 μL of the 10× working stock solutions were added to the appropriate wells. Row H of the plates had control wells. Wells H1-H3 received 20 μL of the assay media. […] Wells H10-H12 received media and had no cells. […] Nutlin-3a was diluted using the same dilution scheme as the peptides.
10 μL of the 10× stock solutions were added to the appropriate wells to achieve the final concentrations in a total volume of 100 μL. […] 48 h after incubation, 80 μL of the media was aspirated from each well. 100 μL of Caspase 3/7Glo assay reagent was added to each well. […] Data were analyzed as Caspase 3 activation over DMSO-treated cells.

[3] = Circular dichroism (CD) analysis of alpha-helicity; format: physicochemical; conditions: difference 50% TFE minus benign
Description: Peptide solutions were analyzed by CD spectroscopy using a spectropolarimeter. A temperature controller was used to maintain temperature control of the optical cell. Results are expressed as mean molar ellipticity [θ] (deg cm^2 dmol^−1) as calculated from the equation [θ]=θobs·MRW/10*l*c where θobs is the observed ellipticity in millidegrees, MRW is the mean residue weight of the peptide (peptide molecular weight/number of residues), 1 is the optical path length of the cell in centimeters, and c is the peptide concentration in mg/ml. Peptide concentrations were determined by amino acid analysis. Stock solutions of peptides were prepared in benign CD buffer (20 mM phosphoric acid, pH 2). The stock solutions were used to prepare peptide solutions of 0.05 mg/ml in either benign CD buffer or CD buffer with 50% trifluoroethanol (TFE) for analyses in a 10 mm path length cell. Variable wavelength measurements of peptide solutions were scanned at 4° C. from 195 to 250 nm, in 0.2 nm increments, and a scan rate 50 nm per minute. The average of six scans is reported.

[4] = test system: MCF7 cells; format: cell-based, human; conditions: Homo sapiens
[5] = test system: SJSA1 osteosarcoma cancer cells; test: cells; conditions: Homo sapiens, SJSA-1, 120 h, read-out: IC50, cellular proliferation
[6] = Pharmacokinetics of AP1 and palbociclib in non-tumor-bearing nu/nu mice; conditions: nu/nu, mouse, plasma, po, 75 mg/kg, nu/nu mice; for AUC(0-t): AUClast
[7] = Alone, AP1 20 mg/kg or palbociclib 75 mg/kg alone
[8] = Co-administered, AP1 20 mg/kg with palbociclib 75 mg/kg

Compound: CSCC[C@H](NC(=O)[C@H](C)NC(=O)[C@H](C)NC(=O)[C@]1(C)CCCC=CCCCCCC[C@@](C)(NC(=O)[C@H](Cc2ccccc2)NC(=O)[C@@H](NC(=O)[C@H](CC(C)C)NC(C)=O)[C@@H](C)O)C(=O)N[C@@H](C)C(=O)N[C@@H](Cc2ccc(O)cc2)C(=O)N[C@@H](Cc2c[nH]c3ccccc23)C(=O)N[C@@H](C)C(=O)N[C@@H](C)C(=O)N[C@@H](CC(C)C)C(=O)N1)C(=O)N[C@H](C)C(N)=O (single isomer, unassigned) [compound 72]
- 6.25 μM % Lysed cells (1 h LDH) ([1]; 6.25 μM): 2%
- 25 μM % Lysed cells (1 h LDH) ([1]; 25 μM): 0%
- 50 μM % Lysed cells (1 h LDH) ([1]; 50 μM): 3%
- caspase 0.3 μM ([2]; 0.3 μM): 1
- caspase 3 μM ([2]; 3 μM): 1
- caspase 10 μM ([2]; 10 μM): 4
- caspase 30 μM ([2]; 30 μM): 10

- Molar Ellipticity TFE-Molar Ellipticity Benign [3]: −21407.1 deg cm^2 dmol^−1
Compound: CCCC[C@H](NC(=O)[C@H](C)NC(=O)[C@H](C)NC(=O)[C@]1(C)CCC/C=C/CCCCCC[C@@](C)(NC(=O)[C@H](Cc2ccccc2)NC(=O)[C@@H](NC(=O)[C@H](CC(C)C)NC(C)=O)[C@@H](C)O)C(=O)N[C@@H](C)C(=O)N[C@@H](Cc2ccc(O)cc2)C(=O)N[C@@H](Cc2c[nH]c3ccccc23)C(=O)N[C@@H](C)C(=O)N[C@@H](CCC(N)=O)C(=O)N[C@@H](CC(C)C)C(=O)N1)C(=O)N[C@@H](C)C(N)=O [compound 69]

- Molar Ellipticity TFE-Molar Ellipticity Benign [3]: −17835.9 deg cm^2 dmol^−1
Compound: CC[C@H](C)[C@H](NC(=O)[C@H](C)NC(=O)[C@H](C)NC(=O)[C@]1(C)CCC/C=C/CCCCCC[C@@](C)(NC(=O)[C@H](Cc2ccccc2)NC(=O)[C@@H](NC(=O)[C@H](CC(C)C)NC(C)=O)[C@@H](C)O)C(=O)N[C@@H](C)C(=O)N[C@@H](Cc2ccc(O)cc2)C(=O)N[C@@H](Cc2c[nH]c3ccccc23)C(=O)N[C@@H](C)C(=O)N[C@@H](CCC(N)=O)C(=O)N[C@@H](CC(C)C)C(=O)N1)C(=O)N[C@H](C)C(N)=O [compound 71]

- Molar Ellipticity TFE-Molar Ellipticity Benign [3]: −18554.7 deg cm^2 dmol^−1
Compound: CC(=O)N[C@@H](CC(C)C)C(=O)N[C@H](C(=O)N[C@@H](Cc1ccccc1)C(=O)N[C@]1(C)CCCCCCC=CCCC[C@@](C)(C(=O)N[C@@H](C)C(=O)N[C@@H](C)C(=O)N[C@@H](C)C(=O)N[C@@H](C)C(=O)N[C@H](C)C(N)=O)NC(=O)[C@H](CC(C)C)NC(=O)[C@H](CCC(N)=O)NC(=O)[C@H](C)NC(=O)[C@H](Cc2c[nH]c3ccccc23)NC(=O)[C@H](Cc2ccc(O)cc2)NC(=O)[C@H](C)NC1=O)[C@@H](C)O [compound 233]

- IC50 [5]: 60 nM
- AUC(0-t) [6, 7]: 37000 ng·h/mL
- AUC(0-t) [6, 8]: 29000 ng·h/mL
- Cmax [6, 7]: 2900 ng/mL
- Cmax [6, 8]: 2600 ng/mL
Compound: CC(=O)c1c(C)c2cnc(Nc3ccc(N4CCNCC4)cn3)nc2n(C2CCCC2)c1=O [palbociclib]
- inhibition at 0.0003 µM [4]: -10%
- inhibition at 0.001 µM [4]: -19%
- inhibition at 0.003 µM [4]: -9.7%
- inhibition at 0.01 µM [4]: 6.6%
- inhibition at 0.03 µM [4]: 21.1%
- inhibition at 0.1 µM [4]: 40.9%
- inhibition at 0.3 µM [4]: 62.9%
- inhibition at 1 µM [4]: 78.9%
- inhibition at 3 µM [4]: 84%
- inhibition at 10 µM [4]: 84.3%
- inhibition at 30 µM [4]: 100%
